Measurements published in PubChem BioAssay AID330 (DTP/NCI, 2004).
“And” between values parts separate entries of the source, which are not always exact repeats. Equal entries are not always repeated. Inconclusive results and toxic doses are left out. The calls were made as follows: active = survival T/C of 150% or more; inactive = T/C below 125% in these data.

Test system: P388 leukemia ip, CD2F1 mice, survival T/C
Test: NCI In Vivo Anticancer Drug Screen. Data for tumor model P388 Leukemia (intraperitoneal) in CD2F1 (CDF1) mice
Conditions: endpoint: median survival time, higher = longer survival
Method in brief: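 Mice carrying the transplanted tumor received test compound or vehicle. Survival was recorded in each group, and the value is the treated-group measurement divided by that of the vehicle-treated control group.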

[1] = dose: 50.0 mg/kg/injection, schedule: Q01DX009 (ip), vehicle: Klucel (hydroxypropylcellulose) (HPC)
[2] = dose: 100.0 mg/kg/injection, schedule: Q01DX009 (ip), vehicle: Klucel (hydroxypropylcellulose) (HPC)
[3] = dose: 200.0 mg/kg/injection, schedule: Q01DX009 (ip), vehicle: Klucel (hydroxypropylcellulose) (HPC)
[4] = dose: 50.0 mg/kg/injection, schedule: Q01DX005 (ip), vehicle: saline with Tween-80
[5] = dose: 100.0 mg/kg/injection, schedule: Q01DX005 (ip), vehicle: saline with Tween-80
[6] = dose: 200.0 mg/kg/injection, schedule: Q01DX005 (ip), vehicle: saline with Tween-80
[7] = dose: 50.0 mg/kg/injection, schedule: Q01DX009 (ip), vehicle: saline with Tween-80
[8] = dose: 100.0 mg/kg/injection, schedule: Q01DX009 (ip), vehicle: saline with Tween-80
[9] = dose: 200.0 mg/kg/injection, schedule: Q01DX009 (ip), vehicle: saline with Tween-80
[10] = dose: 400.0 mg/kg/injection, schedule: Q01DX009 (ip), vehicle: saline with Tween-80
[11] = dose: 60.0 mg/kg/injection, schedule: Q01DX005 (ip), vehicle: saline with Tween-80
[12] = dose: 100.0 mg/kg/injection, schedule: Q01DX009 (ip), vehicle: saline

Measured: T/C

Cc1coc2c1C(O)C1(C)C(C)CCC(O)C1C2=O (stereo not drawn)
inactive: dose: 7.5 mg/kg/injection, schedule: Q01DX009 (ip), vehicle: saline with Tween-80 101 % of control | dose: 15.0 mg/kg/injection, schedule: Q01DX009 (ip), vehicle: saline with Tween-80 101 % of control | dose: 30.0 mg/kg/injection, schedule: Q01DX009 (ip), vehicle: saline with Tween-80 101 % of control | dose: 60.0 mg/kg/injection, schedule: Q01DX009 (ip), vehicle: saline with Tween-80 102 % of control

COc1ccc(C(=O)CC2(O)C(=O)Nc3ccccc32)cc1 (stereo not drawn)
inactive: [1] 100 % of control | [2] 102 % of control | [3] 100 % of control

COc1ccc(C2c3cc4c(cc3OC(C)(OC)C2C)OCO4)c(OC)c1OC (stereo not drawn)
inactive: dose: 100.0 mg/kg/injection, schedule: Q01DX001 (ip), vehicle: saline with Tween-80 94 % of control | dose: 200.0 mg/kg/injection, schedule: Q01DX001 (ip), vehicle: saline with Tween-80 94 % of control

C=CC(=O)C1OC2OC(C)(C)OC2C2OC(C)(C)OC12 (stereo not drawn)
inactive: [4] 93 % of control | [5] 97 % of control | [6] 98 % of control

O=Cc1cc(/C=N/Nc2ccc([N+](=O)[O-])cc2[N+](=O)[O-])nc2[nH]c(=O)ccc12
inactive: dose: 100.0 mg/kg/injection, schedule: Q04DX002 (ip), vehicle: saline with Tween-80 97 % of control | dose: 200.0 mg/kg/injection, schedule: Q04DX002 (ip), vehicle: saline with Tween-80 104 % of control | dose: 400.0 mg/kg/injection, schedule: Q04DX002 (ip), vehicle: saline with Tween-80 95 % of control

NC(=O)C1c2ccccc2C=Cc2ccccc21
inactive: [4] 93 % of control | [5] 90 % of control | [6] 93 % of control

Nc1c(Cl)c(Cl)nc(C(=O)O)c1Cl
inactive: dose: 25.0 mg/kg/injection, schedule: Q01DX009 (ip), vehicle: Klucel (hydroxypropylcellulose) (HPC) 101 % of control | dose: 25.0 mg/kg/injection, schedule: Q01DX009 (ip), vehicle: saline with Tween-80 102 % of control | [1] 86 % of control | [7] 100 % of control | [2] 93 % of control | [8] 100 % of control | [3] 93 % of control | [9] 111 % of control | [10] 115 % of control

COc1cc2[nH]c3cc(OC)c(OC)cc3c2cc1C
inactive: dose: 15.0 mg/kg/injection, schedule: Q01DX005 (ip), vehicle: saline with Tween-80 100 % of control | dose: 30.0 mg/kg/injection, schedule: Q01DX005 (ip), vehicle: saline with Tween-80 96 % of control | [11] 102 % of control and 86 % of control

COCc1cccnc1
inactive: dose: 25.0 mg/kg/injection, schedule: Q01DX005 (ip), vehicle: Klucel (hydroxypropylcellulose) (HPC) 97 % of control | dose: 50.0 mg/kg/injection, schedule: Q01DX005 (ip), vehicle: Klucel (hydroxypropylcellulose) (HPC) 93 % of control | dose: 100.0 mg/kg/injection, schedule: Q01DX005 (ip), vehicle: Klucel (hydroxypropylcellulose) (HPC) 88 % of control

Cc1nc2c(cnn2C)cc1CCc1ccccc1
inactive: [11] 94 % of control | dose: 120.0 mg/kg/injection, schedule: Q01DX005 (ip), vehicle: saline with Tween-80 95 % of control | dose: 240.0 mg/kg/injection, schedule: Q01DX005 (ip), vehicle: saline with Tween-80 103 % of control

NCCCCC(NC(=O)c1ccccc1)C(=O)O (stereo not drawn)
inactive: [7] 98 % of control | [8] 100 % of control | [9] 104 % of control

Cc1cccc(=N)n1CCC(=O)O
inactive: [12] 90 % of control | dose: 200.0 mg/kg/injection, schedule: Q01DX009 (ip), vehicle: saline 100 % of control

CC1NC(C)N2C(C)N12 (stereo not drawn)
inactive: dose: 25.0 mg/kg/injection, schedule: Q01DX001 (ip), vehicle: saline 105 % of control | dose: 50.0 mg/kg/injection, schedule: Q01DX001 (ip), vehicle: saline 104 % of control | dose: 100.0 mg/kg/injection, schedule: Q01DX001 (ip), vehicle: saline 104 % of control

NC(=O)NC1CCCCCCC1
inactive: dose: 100.0 mg/kg/injection, schedule: Q04DX003 (ip), vehicle: saline with Tween-80 100 % of control | dose: 200.0 mg/kg/injection, schedule: Q04DX003 (ip), vehicle: saline with Tween-80 109 % of control | dose: 400.0 mg/kg/injection, schedule: Q04DX003 (ip), vehicle: saline with Tween-80 95 % of control

COSc1ccccc1
inactive: dose: 100.0 mg/kg/injection, schedule: Q01DX001 (ip), vehicle: Klucel (hydroxypropylcellulose) (HPC) 96 % of control | dose: 200.0 mg/kg/injection, schedule: Q01DX001 (ip), vehicle: Klucel (hydroxypropylcellulose) (HPC) 90 % of control | dose: 400.0 mg/kg/injection, schedule: Q01DX001 (ip), vehicle: Klucel (hydroxypropylcellulose) (HPC) 104 % of control

CCOC(=O)C1=C(C)N(C)C(C)=C(C(=O)OCC)C1c1ccc(Cl)cc1
inactive: dose: 25.0 mg/kg/injection, schedule: Q01DX009 (ip), vehicle: distilled water + Tween-80 99 % of control | dose: 50.0 mg/kg/injection, schedule: Q01DX009 (ip), vehicle: distilled water + Tween-80 97 % of control | dose: 100.0 mg/kg/injection, schedule: Q01DX009 (ip), vehicle: distilled water + Tween-80 89 % of control | dose: 400.0 mg/kg/injection, schedule: Q01DX009 (ip), vehicle: distilled water + Tween-80 98 % of control

CCOC(=O)c1ccc(Nc2sc(C(=O)c3ccc(Br)cc3)c(N)c2C#N)cc1
inactive: [7] 100 % of control | [8] 108 % of control | [9] 90 % of control | [10] 86 % of control

C/C(=N/NC(N)=S)c1ccc2ccccc2c1
inactive: dose: 0.75 mg/kg/injection, schedule: Q01DX009 (ip), vehicle: saline with Tween-80 109 % of control | dose: 1.5 mg/kg/injection, schedule: Q01DX009 (ip), vehicle: saline with Tween-80 110 % of control | dose: 3.0 mg/kg/injection, schedule: Q01DX009 (ip), vehicle: saline with Tween-80 108 % of control | dose: 5.33 mg/kg/injection, schedule: Q01DX009 (ip), vehicle: saline with Tween-80 117 % of control | dose: 6.0 mg/kg/injection, schedule: Q01DX009 (ip), vehicle: saline with Tween-80 121 % of control

CCCCCCCCCCCC(=O)NC1CCS(=O)(=O)C1 (stereo not drawn)
inactive: dose: 37.5 mg/kg/injection, schedule: Q01DX009 (ip), vehicle: Klucel (hydroxypropylcellulose) (HPC) 99 % of control | dose: 75.0 mg/kg/injection, schedule: Q01DX009 (ip), vehicle: Klucel (hydroxypropylcellulose) (HPC) 96 % of control | dose: 150.0 mg/kg/injection, schedule: Q01DX009 (ip), vehicle: Klucel (hydroxypropylcellulose) (HPC) 97 % of control | dose: 300.0 mg/kg/injection, schedule: Q01DX009 (ip), vehicle: Klucel (hydroxypropylcellulose) (HPC) 95 % of control

CCN(CC)c1nc(N(CC)CC)c2[nH]cnc2n1
inactive: dose: 12.5 mg/kg/injection, schedule: Q01DX005 (ip), vehicle: saline with Tween-80 102 % of control | dose: 25.0 mg/kg/injection, schedule: Q01DX005 (ip), vehicle: saline with Tween-80 100 % of control | [4] 98 % of control and 105 % of control | [5] 105 % of control

NCCc1ccc([N+](=O)[O-])cc1
inactive: dose: 50.0 mg/kg/injection, schedule: Q01DX009 (ip), vehicle: saline 104 % of control and 96 % of control | [12] 98 % of control and 105 % of control
